Reference: US20260041690A1, “Treatment of Memory Loss with Phosphodiesterase Inhibitors” (Cyrano Therapeutics, Inc., priority 2023, published 2026)

How the values were obtained:
[1] = system: memory loss associated with sleep deprivation; experiment: Treatment of memory loss associated with sleep deprivation in a subject; type: in vivo; details: nasal spray, effective dose 3× daily in each naris
Source text: A subject is admitted to a clinic for a memory loss associated with sleep deprivation. The subject is prescribed a roflumilast composition in a nasal spray device described herein. The subject administers the nasal spray in an effective dose 3× daily in each naris. The nasal spray is characterized by a spray containing a D50 of about 15 μm to about 24 μm, a D90 of from about 30 μm to about […] and where less than about 3% of the droplets in the plume of a spray have a size of less than about 10 μm.

[2] = cited from earlier work

Row | Structure (SMILES) | memory retention after administration [1] | solubility of theophylline in ethanol ([2]; in ethanol) [mg/mL] | solubility of theophylline in water ([2]; in water) [mg/mL]
1 | O=C(Nc1c(Cl)cncc1Cl)c1ccc(OC(F)F)c(OCC2CC2)c1 [roflumilast] | improved memory retention |  | 
2 | Cn1c(=O)c2[nH]cnc2n(C)c1=O [theophylline] |  | 14 to 15 | 7 to 8
